Test in all cases: isothermal titration calorimetry
Type in all cases: binding
Details in all cases: read-out: Ka (M^-1) (converted)

Test [1] deals with T1, eArgRS (E. coli arginyl-tRNA synthetase, ArgRS) (Escherichia coli, UniProt P11875).
T1 construct: gene argS; full length, 577 residues; pET-28a-SUMO in E. coli BL21(DE3), N-terminal His-SUMO tag cleaved by Ulp1; mutants made in pET22b/ArgRS
T1 sequence (P11875 1-577): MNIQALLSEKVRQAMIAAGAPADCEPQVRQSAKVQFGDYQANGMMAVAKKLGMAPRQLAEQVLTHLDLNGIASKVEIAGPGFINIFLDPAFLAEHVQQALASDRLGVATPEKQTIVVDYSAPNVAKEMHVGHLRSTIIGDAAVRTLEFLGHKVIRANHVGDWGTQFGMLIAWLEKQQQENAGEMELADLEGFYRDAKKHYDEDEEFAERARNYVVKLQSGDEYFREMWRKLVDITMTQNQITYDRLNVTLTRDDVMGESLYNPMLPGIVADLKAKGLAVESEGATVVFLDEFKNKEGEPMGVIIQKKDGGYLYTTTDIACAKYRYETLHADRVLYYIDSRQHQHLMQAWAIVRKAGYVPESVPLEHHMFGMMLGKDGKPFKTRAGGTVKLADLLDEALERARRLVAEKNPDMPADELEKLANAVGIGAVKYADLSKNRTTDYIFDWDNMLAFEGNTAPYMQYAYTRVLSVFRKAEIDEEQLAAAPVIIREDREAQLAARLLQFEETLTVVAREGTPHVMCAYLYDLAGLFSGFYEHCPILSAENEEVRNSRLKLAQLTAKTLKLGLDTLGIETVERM
The source says:
(§1) isothermal titration calorimetry on eArgRS (E. coli arginyl-tRNA synthetase, ArgRS)

Test [2] deals with T2, eArgRS (E. coli arginyl-tRNA synthetase, ArgRS) (Escherichia coli, UniProt P11875, R324A).
T2 construct: gene argS; full length, 577 residues; pET-28a-SUMO in E. coli BL21(DE3), N-terminal His-SUMO tag cleaved by Ulp1; mutants made in pET22b/ArgRS
T2 sequence (P11875 1-577 R324A): T1 sequence (P11875 1-577) with R324A
Excerpt: as §1

The target in test [3] is T3, eArgRS (E. coli arginyl-tRNA synthetase, ArgRS) (Escherichia coli, UniProt P11875, Y313A).
T3 construct: gene argS; full length, 577 residues; pET-28a-SUMO in E. coli BL21(DE3), N-terminal His-SUMO tag cleaved by Ulp1; mutants made in pET22b/ArgRS
T3 sequence (P11875 1-577 Y313A): T1 sequence (P11875 1-577) with Y313A
Excerpt: as §1

Changes are numbered by the printed parent chain.

The text below walks through data of paper PMC3956977, “Crystal structure of E. coli arginyl-tRNA synthetase and ligand binding studies revealed key residues in arginine recognition” (Protein & Cell, 2014).

With `N=C(N)NCCC[C@H](N)C(=O)O` [L-arginine], the values for the Kd in test [1], in test [2] and in test [3] were 46.5 µM, 191 µM and 80.6 µM, respectively.
